Among the data in US20220251096A1, “7,8-DIHYDRO-4H-PYRAZOLO[4,3-c]AZEPINE-6-ONE COMPOUNDS” (Eli Lilly and Company, priority 2019, published 2022) are IC50 and Kd values, retold here.

The subject of experiment [1] is SW780. Briefly: Cell growth inhibition assay, SW780. To be noted: Homo sapiens, 168 h; SW780, 7 days. It is filed as cell-based. The method, then:
(§1) Tumor cell lines are plated onto 96-well, black wall poly-D-lysine plates (Corning #354640), and incubated at 37° C., 5% CO2 for 18-24 hours. Compound was added at 1:3 dilutions in DMSO and cells were incubated at 37° C., 5% CO2 for 7 days. For adherent cell lines, cells were fixed and stained with propidium iodide and scanned on Acumen (channel 3 setting). For suspension cell lines, cell growth was monitored using Cell Titer-Glo reagent.

For experiment [2], the system named is OCI-AML2. Briefly: Cell growth inhibition assay, OCI-AML2. It counts as cell-based. To be noted: Homo sapiens, 168 h; OCI-AML2, 7 days. As for the experimental part:
as §1

Experiment [3] has as its target T1, EP300 (Homo sapiens, UniProt Q09472).
T1 sequence (Q09472 1049-1156 limits assumed): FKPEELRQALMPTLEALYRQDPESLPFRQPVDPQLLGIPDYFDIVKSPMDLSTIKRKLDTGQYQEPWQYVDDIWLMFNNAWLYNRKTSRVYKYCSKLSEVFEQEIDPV
In words: BromoKdELECT platform assay, EP300. It is filed as binding. Also on record: purchased DiscoverX (BromoKdELECT service). The note with it: 11 points dose-response, mean from a duplicate experiment. An excerpt: (§2) The purpose of this assay is to evaluate the in vitro target engagement and selectivity (https://www.discoverx.com/services/drug-discovery-development-services/epigenetic-profiling/bromoscan-epigenetic-profiling/bromokdelect). Assay measurement is based on the amount of bromodomain captured in test and control samples by using quantitative PCR technology that detects the DNA label associated to bromodomain. Compounds that bind the bromodomain active site prevents its binding to the immobilized ligand and will reduce the amount of bromodomain captured on the solid support. […] Thus, compound activity is monitored by measuring the amount of bromodomain captured in test versus control samples by using qPCR. Binding affinity for test compound-bromodomain interactions are calculated by measuring the amount of bromodomain captured on the solid support as a function of the test compound concentration.
(§3) Binding affinity (Kd) of the compounds of Examples 1 and 2 towards CREBBP, EP300 and BRD4 (Bromodomain 1 (BD1) and Bromodomain 2 (BD2)) are determined in an 11 points dose-response study (See Table 5). Data is represented as a mean from a duplicate experiment.

Experiment [4] concerns the target T2, CREBBP (Homo sapiens, UniProt Q92793). Briefly: NanoBRET assay, CREBBP bromodomain. Also on record: NanoLuc-CREBBP-BD (Promega, 0.0002 μg); host or cells: HEK293. To be noted: NanoBRET in HEK293 cells, read after 4 hours incubation; mean ± Standard Deviation. It counts as cell-based. As for the experimental part:
(§4) HEK293 cells are seeded at 10×10^6 cells/16 mL in DMEM+10% FBS in a T-75 flask and left to attach for 4-6 hours. Transfection reagents are diluted in Opti-MEM media (no phenol red, no FBS) and 8% Fugene HD containing expression plasmids at a final concentration of the following: 1: Histone H3.3 HaloTag DNA (Promega, 0.02 μg)+NanoLuc-CREBBP-BD (Promega, 0.0002 μg); 2: Histone H3.3 HaloTag DNA (Promega, 0.02 μg)+NanoLuc-EP300-BD (Promega, 0.0002 μg); 3: Histone H4 HaloTag DNA (0.02 μg)+NanLuc-BRD4 Full Length (Promega, 0.0002 μg). The DNA/Fugene mixtures are left at RT for 10 minutes. Transfection mix (800 μL) is added per flask and immediately swirled to cover the cells. The plates are returned to the incubator for overnight transfection. The next day, HaloTag NanoBRET 618 ligand (20 μL/vial of 0.1 mM) is thawed at RT. […]
(§5) Compound is serially diluted and added to 96-well plates (2 10 mM, 3-fold dilutions, 100% DMSO). […] CREBBP/EP300 plates are read after 4 hours incubation and the BRD4 plates are read after overnight incubation. To develop plates for reading, allow all reagents to reach RT before use. […] The plate is shaken for 1 minute to mix and within 10 minutes, read on Envision plate reader with the following settings: Mirror: Luminescence; Emission filter: E600LP; 2nd emission filter: D460/50; Measurement height (mm): 6.5; Measurement time (s): 0.2 second.
For orientation: In BRET a luciferase serves as donor, and the signal depends on an acceptor being close.

Experiment [5] relates to OCI-AML3. Briefly: Cell growth inhibition assay, OCI-AML3. It counts as cell-based. The note with it: Homo sapiens, OCI-AML-3, 168 h; OCI-AML3, 7 days. As for the experimental part: as §1
For experiment [6], the system named is MDA-MIB-453. In words: Cell growth inhibition assay, MDA-MIB-453. It is filed as cell-based. To be noted: 168 h; MDA-MIB-453, 7 days. As for the experimental part: as §1
Experiment [7] has as its target T1, EP300. In words: NanoBRET assay, EP300 bromodomain. It counts as cell-based. Also on record: NanoLuc-EP300-BD (Promega, 0.0002 μg); host or cells: HEK293. To be noted: NanoBRET in HEK293 cells, read after 4 hours incubation; mean ± Standard Deviation. As for the experimental part:
as §4, §5

Experiment [8] has as its target T3, hBRD4 (Homo sapiens, UniProt O60885).
T3 construct: NanLuc-BRD4 Full Length (Promega, 0.0002 μg); host or cells: HEK293
In words: NanoBRET assay, BRD4 full length. It counts as cell-based. To be noted: NanoBRET in HEK293 cells, read after overnight incubation; mean ± Standard Deviation. The method, then:
as §4, §5

Experiment [9] addresses T2, CREBBP. Briefly: BromoKdELECT platform assay, CREBBP. It counts as binding. Details: purchased DiscoverX (BromoKdELECT service). To be noted: 11 points dose-response, mean from a duplicate experiment.
Description: as §2, §3

Each structure is given as a SMILES string.

The term IC50 denotes the concentration that inhibits the measured activity by half. A higher IC50 goes with a need for much substance. By Kd is commonly meant the equilibrium constant for the complex coming apart. Read a low Kd as a tighter complex.

T2 sequence (Q92793 1085-1192 limits assumed): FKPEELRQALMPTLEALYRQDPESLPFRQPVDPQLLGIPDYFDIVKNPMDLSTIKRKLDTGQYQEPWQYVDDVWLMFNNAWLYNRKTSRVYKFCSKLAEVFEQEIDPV

In the case of `CCNC(=O)c1ccc(-c2cc3cccc(-c4nn(C)c5c4CN(C)C(=O)CC5)c3cn2)cn1` [Example 2, 5-[8-(1,5-Dimethyl-6-oxo-7,8-dihydro-4H-pyrazolo[4,3-c]azepin-3-yl)-3-isoquinolyl]-N-ethyl-pyridine-2-carboxamide], the IC50 in experiment [1] is 4 nM; in experiment [2], 207 nM; in [4], 18.6 ± 4.09 nM; in experiment [5], 226 nM; in experiment [6] it was 35 nM; in experiment [7] it was 26.1 ± 16.5 nM. The molecule further gave a half-inhibitory concentration (IC50) in experiment [8] of 11800 nM. Moreover, the Kd in experiment [3] was 0.095 nM; in experiment [9], 0.325 nM.
